Here are results for 92 molecules from ChEMBL document CHEMBL4400545 (Bioorg Med Chem, 2019).

In this test the target is Sodium- and chloride-dependent GABA transporter 1 (Mus musculus) (UniProt P31648). The experiment in a line: Inhibition of mouse GAT-1 assessed as percentage of remaining specific binding of NO711 at 1 uM after 4 hrs by LC-ESI-MS/ms analysis relative to control.

In the case of `CC(C=O)(CCC#N)c1ccccc1` (configuration not stated), the Activity is 92%.

In the case of `COc1ccc(C=O)cc1`, the Activity is 89%.

Consider `COc1ccccc1C=O`, for which the Activity stood at 89%.

With `Cc1ccccc1-c1ncccc1C=O`, the Activity was 87%.

Consider `Cc1ccsc1-c1sc(C=O)cc1C`, for which the Activity turned out to be 97%. `Cc1noc(-c2ccccc2C=O)n1`: the Activity was found to be 97%. `Cc1onc(-c2ccc(Cl)cc2)c1C=O`: the Activity was 92%. For the molecule `O=CC(c1ccccc1)c1ccccc1`, the Activity came out at 90%.

As for `O=CC1CC2C=CC1C2` (configuration not stated), the Activity was 85%. As to `O=Cc1c2ccccc2cc2ccccc12`, the Activity was found to be 87%.

For `O=Cc1c[nH]c2ncccc12`, the Activity came out at 85%. With `O=Cc1c[nH]nc1-c1ccc(F)cc1`, the Activity worked out at 92%. Consider `O=Cc1cc(F)ccc1-c1ccc(Cl)cc1Cl`, for which the Activity was determined as 82%.

Regarding `O=Cc1cc(F)ccc1-c1ccccc1`, the Activity came out at 80%. Regarding `O=Cc1cc(F)ccc1-c1ccccc1Cl`, the Activity amounted to 80%. As for `O=Cc1cc(F)ccc1-c1ccccc1F`, the Activity was determined as 80%. For the molecule `O=Cc1cc2c(cc1-c1ccc(Cl)cc1Cl)OCO2`, the Activity turned out to be 92%.

As to `O=Cc1cc2c(cc1-c1ccccc1)OCO2`, the Activity amounted to 92%.

`O=Cc1cc2c(cc1-c1ccccc1Cl)OCO2`: the Activity was determined as 92%.

In the case of `O=Cc1cc2c(cc1-c1ccccc1F)OCO2`, the Activity was 92%. With `O=Cc1ccc(-c2ccc(C(F)(F)F)cc2Cl)o1`, the Activity stood at 82%. As to `O=Cc1ccc(-c2ccccc2)cc1`, the Activity was found to be 90%. On to `O=Cc1ccc(-c2ccccc2OC(F)(F)F)o1`, for which the Activity is 82%. `O=Cc1ccc(Br)cn1`: the Activity came to 92%. Under `O=Cc1ccc(Br)nc1` stands 92%; under `O=Cc1ccc(C#Cc2ccccc2)s1`, 94%; under `O=Cc1ccc(O)cc1`, 89%.

Turning to `O=Cc1ccc(OCc2ccccc2)cc1`, the Activity is 90%. Consider `O=Cc1ccc(Oc2ccccc2)cc1`, for which the Activity came to 90%.

As for `O=Cc1ccc([N+](=O)[O-])cc1`, the Activity was 92%. For `O=Cc1ccc2c(c1)Cc1ccccc1-2`, the Activity is 88%.

On to `O=Cc1ccc2ccccc2n1`, for which the Activity is 87%.

Regarding `O=Cc1cccc(Br)n1`, the Activity worked out at 92%. On to `O=Cc1cccc(Oc2ccccc2)c1`, for which the Activity is 90%.

For the molecule `O=Cc1cccc([N+](=O)[O-])c1`, the Activity is 92%. To `O=Cc1cccc2c1OCO2` belongs 80%. Consider `O=Cc1ccccc1`, for which the Activity was determined as 89%. `O=Cc1ccccc1-c1c(F)cccc1F`: the Activity came to 88%. With `O=Cc1ccccc1-c1cc(F)ccc1F`, the Activity amounted to 88%. On to `O=Cc1ccccc1-c1ccc(Cl)cc1`, for which the Activity is 92%.

For `O=Cc1ccccc1-c1ccc(Cl)cc1Cl`, the Activity came to 93%. Turning to `O=Cc1ccccc1-c1ccc(F)cc1`, the Activity was 92%.

Regarding `O=Cc1ccccc1-c1ccc(F)cc1Cl`, the Activity is 93%. For the molecule `O=Cc1ccccc1-c1ccc2ccccc2c1`, the Activity came to 86%.

With `O=Cc1ccccc1-c1cccc(Cl)c1`, the Activity turned out to be 92%.

For `O=Cc1ccccc1-c1cccc(F)c1`, the Activity was determined as 92%. With `O=Cc1ccccc1-c1cccc(F)c1F`, the Activity amounted to 88%.

As for `O=Cc1ccccc1-c1cccc2ccccc12`, the Activity was 85%. As for `O=Cc1ccccc1-c1ccccc1`, the Activity stood at 90%.

Take `O=Cc1ccccc1-c1ccccc1Cl`: the Activity turned out to be 93%. `O=Cc1ccccc1-c1ccccc1F`: the Activity was found to be 93%. Under `O=Cc1ccccc1-c1cccnc1` stands 88%; under `O=Cc1ccccc1-c1ccco1`, 80%.

`O=Cc1ccccc1-c1cccs1`: the Activity turned out to be 92%. Turning to `O=Cc1ccccc1-n1cccc1`, the Activity came to 97%. As for `O=Cc1ccccc1-n1cccn1`, the Activity turned out to be 88%. In the case of `O=Cc1ccccc1OCc1ccccc1`, the Activity is 90%. Under `O=Cc1ccccc1Oc1ccccc1` stands 88%; under `O=Cc1ccccc1[N+](=O)[O-]`, 92%. To `O=Cc1ccccn1` belongs 85%; to `O=Cc1cccn1-c1ccc(C(F)(F)F)cc1`, 82%. Under `O=Cc1cccnc1` stands 94%; under `O=Cc1cccnc1-c1ccc(Cl)cc1`, 87%; under `O=Cc1cccnc1-c1ccc(Cl)cc1Cl`, 86%. `O=Cc1cccnc1-c1cccc(Cl)c1`: the Activity was determined as 80%. Under `O=Cc1cccnc1-c1cccc(F)c1` stands 87%. To `O=Cc1cccnc1-c1ccccc1` belongs 87%; to `O=Cc1cccnc1-c1ccccc1Cl`, 97%; to `O=Cc1cccnc1-c1ccccc1F`, 80%. Take `O=Cc1cccnc1Br`: the Activity was determined as 92%. For the molecule `O=Cc1ccnc2ccccc12`, the Activity worked out at 87%.

For the molecule `O=Cc1csc2ccccc12`, the Activity came to 94%. Under `O=Cc1sccc1-c1ccc(Cl)cc1Cl` stands 86%; under `O=Cc1sccc1-c1ccc(F)cc1Cl`, 86%. Regarding `O=Cc1sccc1-c1ccccc1`, the Activity came to 94%. As to `O=Cc1sccc1-n1cccc1`, the Activity turned out to be 92%. For the molecule `COc1ccc(/C=N/OCCN2CCCC(C(=O)O)C2)cc1` (racemic), the Activity was determined as 74%.

With `COc1ccccc1/C=N/OCCN1CCCC(C(=O)O)C1` (racemic), the Activity came to 74%. Under `O=C(O)C1CCCN(CCO/N=C/c2c3ccccc3cc3ccccc23)C1` (racemic) stands 62%. `O=C(O)C1CCCN(CCO/N=C/c2cc3ccccc3c3ccccc23)C1` (racemic): the Activity is 62%. With `O=C(O)C1CCCN(CCO/N=C/c2ccc(O)cc2)C1` (racemic), the Activity came to 74%. With `O=C(O)C1CCCN(CCO/N=C/c2ccc(OCc3ccccc3)cc2)C1` (racemic), the Activity was found to be 29%. For `O=C(O)C1CCCN(CCO/N=C/c2ccc(Oc3ccccc3)cc2)C1` (racemic), the Activity came out at 29%. For `O=C(O)C1CCCN(CCO/N=C/c2ccc([N+](=O)[O-])cc2)C1` (racemic), the Activity was found to be 60%. With `O=C(O)C1CCCN(CCO/N=C/c2ccc3ccccc3n2)C1` (racemic), the Activity was determined as 62%. Under `O=C(O)C1CCCN(CCO/N=C/c2cccc(Oc3ccccc3)c2)C1` (racemic) stands 29%; under `O=C(O)C1CCCN(CCO/N=C/c2cccc([N+](=O)[O-])c2)C1` (racemic), 60%; under `O=C(O)C1CCCN(CCO/N=C/c2ccccc2)C1` (racemic), 74%. Under `O=C(O)C1CCCN(CCO/N=C/c2ccccc2OCc2ccccc2)C1` (racemic) stands 29%; under `O=C(O)C1CCCN(CCO/N=C/c2ccccc2[N+](=O)[O-])C1` (racemic), 60%; under `O=C(O)C1CCCN(CCO/N=C/c2ccnc3ccccc23)C1` (racemic), 62%. As for `O=C(O)C1CCCN(CCO/N=C/c2sccc2-n2cccc2)C1` (racemic), the Activity turned out to be 60%.
